The test system of assay [1] is human NSCLC cell line Calu-6. The settings on record: ASP9853 alone, 100 mg/kg oral, twice daily.
The subject of assay [2] is breast cancer (MDA-MB-231). In words: Breast cancer xenograft in mice, combination with paclitaxel. It is filed as in vivo. The settings on record: ASP9853 in combination with paclitaxel; MDA-MB-231 xenograft; data not shown.
Assay [3] deals with prostate cancer (PC-3). In words: Prostate cancer xenograft in mice, combination with paclitaxel. It is filed as in vivo. The settings on record: ASP9853 in combination with paclitaxel; PC-3 xenograft; data not shown.

For `O.O.O=C(/C=C/c1ccc(Cl)cc1)N[C@@H](Cc1ccccn1)C(=O)NCC(=O)N1CCC(Oc2cc(C(F)(F)F)ncn2)CC1` [ASP9853, (2E)-3-(4-chlorophenyl)-N-[(1S)-2-oxo-2-{[2-oxo-2-(4-{[6-(trifluoromethyl)-4-pyrimidinyl]oxy}-1-piperidinyl)ethyl]amino}-1-(2-pyridinylmethyl)ethyl]acrylamide dehydrate], in assay [1], the “Antitumor activity in the Calu-6 NSCLC xenograft model” value is given as “no antitumor activity”. For the same compound, the Tumor growth inhibition entry in assay [2] and in assay [3] was “greater tumor growth inhibition” throughout.

Source of the values: paper PMC4767605 (Cancer chemotherapy and pharmacology, 2016).
